Data on 37 compounds can be found in patent publication US10611750B2, “Tetrahydroquinoline compositions as bet bromodomain inhibitors” (FORMA Therapeutics, Inc., priority 2013, dated 2020).

Test [1] deals with T1, BRD4 Bromodomain 1 (BRD4 BD1) (Homo sapiens, UniProt O60885).
T1 construct: 44-168 and BRD4 BD2
As to the kind of experiment: AlphaScreen binding assay, BRD4 BD1. Conditions: His-tagged BRD4 BD1 50 nM, biotinylated H4 (1-21) K5/8/12/16 tetra-acetylated peptide 50 nM, compounds listed under IC50 range headings. In short, it runs like this: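 Compound dilution series were mixed with His-tagged BRD4 bromodomain and biotinylated tetra-acetylated H4 (1-21) peptide at pH 7.3 (BD1 and peptide at 50 nM, BD2 and peptide at 100 nM). Donor and acceptor beads were then added, and plates were equilibrated at least 1 h before reading. IC50 values were fitted with a four-parameter logistic model.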
On the technique in general: In Alpha technology, singlet oxygen from a donor bead excites a nearby acceptor bead.

Test [2] addresses T2, BRD4 Bromodomain 2 (BRD4 BD2) (Homo sapiens, UniProt O60885).
T2 construct: 333-460 were cloned, expressed, and purified to homogeneity
As to the kind of experiment: AlphaScreen binding assay, BRD4 BD2. Conditions: His-tagged BRD4 BD2 100 nM, biotinylated H4 (1-21) K5/8/12/16 tetra-acetylated peptide 100 nM, compounds listed under IC50 range headings. On the procedure:
The binding of Example compounds to BRD4 Bromodomain 1 and BRD4 Bromodomain 2 was assessed using 384-well AlphaScreen assay technology. His-epitope tagged BRD4 BD144-168 and BRD4 BD2333-460 were cloned, expressed, and purified to homogeneity. BRD4 BD1 and BRD4 BD2 binding and inhibition was assessed by monitoring the engagement of biotinylated Histone H4 (1-21) K5/8/12/16 tetra-acetylated peptide with the targets using the AlphaScreen technology (PerkinElmer). Specifically, in a 384-well black or white flat bottom plate, BRD4 BD1 (50 nM final) or BRD4 BD2 (100 nM final) was combined with peptide (50 nM final for BD1 or 100 nM final for BD2) in 50 mM HEPES (pH 7.3), 100 mM NaCl, 0.1% (w/v) BSA, and 0.01% (w/v) Triton X-100 either in the presence of DMSO (final 1.25% DMSO) or compound dilution series in DMSO. Alpha streptavidin donor beads and Nickel-chelate acceptor beads were added to a final concentration of 10 μg/ml each. After a minimum of 1 hour equilibration, plates were read on a BMG PHERAstar FS multi-label reader (BMG LabTech). The half maximal inhibitory concentration (IC50) values were calculated using IDBS Activity Base software with a four parameter logistic curve fit by the equation y=A+((B−A)/(1+((C/x)^D))), wherein A denotes the bottom plateau of the curve, B denotes the top plateau of the curve, C denotes the x value at the middle of the curve, D denotes the slope factor, x denotes the original known x values, and y denotes the original known y values. Data was fitted using the Levenburg Marquardt algorithm.

For orientation: IC50 means the midpoint of a concentration-inhibition curve.

For `CC(=O)N1c2ccc(-c3cnn(C4CC4)c3)c(OCS(N)(=O)=O)c2CC[C@@H]1C` [I-45, (S)-(1-acetyl-6-(1-cyclopropyl-1H-pyrazol-4-yl)-2-methyl-1,2,3,4-tetrahydroquinolin-5-yloxy)methanesulfonamide], the 50% inhibitory concentration (IC50) was not below 10 µM in test [1] and not below 0.5 µM in test [2].
The corresponding values for `CC(=O)N1c2ccc(-c3cnn(C4CC4)c3)c(OCCC3COC3)c2CC[C@@H]1C` [I-47, (S)-1-(6-(1-cyclopropyl-1H-pyrazol-4-yl)-2-methyl-5-(2-(oxetan-3-yl)ethoxy)-3,4-dihydroquinolin-1(2H)-yl)ethanone] are 1 to 10 µM and 0.05 to 0.5 µM.
As to `CC(=O)N1c2ccc(-c3cnn(C4CC4)c3)c(OCC3CNC3)c2CC[C@@H]1C` [I-52, (S)-1-(5-(azetidin-3-ylmethoxy)-6-(1-cyclopropyl-1H-pyrazol-4-yl)-2-methyl-3,4-dihydroquinolin-1 (2H)-yl)ethanone], the IC50 in test [1] is not below 10 µM; in test [2], not below 0.5 µM.
Consider `COC(=O)N1c2ccc(-c3cnn(C4CC4)c3)c(OC3CN(C(=O)OC(C)(C)C)C3)c2CC[C@@H]1C` [I-58, (S)-methyl 5-(1-(tert-butoxycarbonyl)azetidin-3-yloxy)-6-(1-cyclopropyl-1H-pyrazol-4-yl)-2-methyl-3,4-dihydroquinoline-1(2H)-carboxylate], for which the half-inhibitory concentration (IC50) in test [1] is not below 10 µM; in test [2] it was not below 0.5 µM.
The corresponding values for `COC(=O)N1c2ccc(-c3cnn(C4CC4)c3)c(OC3CNC3)c2CC[C@@H]1C` [I-59, (S)-methyl 5-(azetidin-3-yloxy)-6-(1-cyclopropyl-1H-pyrazol-4-yl)-2-methyl-3,4-dihydroquinoline-1(2H)-carboxylate] are 1 to 10 µM and not below 0.5 µM.
The corresponding values for `COC(=O)N1c2ccc(-c3cnn(C4CC4)c3)c(OCC3(F)COC3)c2CC[C@@H]1C` [I-65, (S)-methyl 6-(1-cyclopropyl-1H-pyrazol-4-yl)-5-((3-fluorooxetan-3-yl)methoxy)-2-methyl-3,4-dihydroquinoline-1(2H)-carboxylate] are 1 to 10 µM and 0.05 to 0.5 µM.
As for `CC(=O)N1c2ccc(-c3cnn(C4COC4)c3)c(Oc3nc4ccccc4o3)c2CC[C@@H]1C` [I-79, (S)-1-(5-(benzo[d]oxazol-2-yloxy)-2-methyl-6-(1-(oxetan-3-yl)-1H-pyrazol-4-yl)-3,4-dihydroquinolin-1(2H)-yl)ethanone], the results for the IC50 in test [1] and in test [2] were 0.1 to 1 µM and 0.05 to 0.5 µM, respectively.
The corresponding values for `CC(=O)N1c2ccc(-c3cnn(C4CC4)c3)c(Oc3nccc(C(F)(F)F)n3)c2CC[C@@H]1C` [I-85, (S)-1-(6-(1-cyclopropyl-1H-pyrazol-4-yl)-2-methyl-5-(4-(trifluoromethyl)pyrimidin-2-yloxy)-3,4-dihydroquinolin-1 (2H)-yl)ethanone] are 1 to 10 µM and 0.05 to 0.5 µM.
On to `CC(=O)N1c2ccc(-c3cnn(C4CC4)c3)c(Oc3ncccc3Cl)c2CC[C@@H]1C` [I-87, (S)-1-(5-(3-chloropyridin-2-yloxy)-6-(1-cyclopropyl-1H-pyrazol-4-yl)-2-methyl-3,4-dihydroquinolin-1 (2H)-yl)ethanone], for which the values for the half-inhibitory concentration (IC50) in test [1] and in test [2] were 1 to 10 µM and 0.05 to 0.5 µM, respectively.
The like results for `CC(=O)N1c2ccc(-c3cnn(C4CC4)c3)c(Oc3nc(C)cc(C)n3)c2CC[C@@H]1C` [I-90, (S)-1-(6-(1-cyclopropyl-1H-pyrazol-4-yl)-5-(4,6-dimethylpyrimidin-2-yloxy)-2-methyl-3,4-dihydroquinolin-1 (2H)-yl)ethanone] were, in that order, 1 to 10 µM and 0.05 to 0.5 µM.
The corresponding values for `CC(=O)N1c2ccc(-c3cnn(C4CC4)c3)c(O/C=C/Cl)c2CC[C@@H]1C` [I-277, (S,E)-1-(5-(2-chlorovinyloxy)-6-(1-cyclopropyl-1H-pyrazol-4-yl)-2-methyl-3,4-dihydroquinolin-1(2H)-yl)ethanone] are 1 to 10 µM and 0.05 to 0.5 µM.
Turning to `CNC(=O)COc1c(-c2cnn(C3COC3)c2)ccc2c1CC[C@H](C)N2C(C)=O` [I-378], the IC50 in test [1] was in the range of 1 to 10 µM; in test [2], 0.05 to 0.5 µM.
Consider `CC(=O)N1c2ccc(-c3cnn(C4COC4)c3)c(OCc3ccno3)c2CC[C@@H]1C` [I-379], for which the IC50 lay within 1 to 10 µM in test [1] and 0.05 to 0.5 µM in test [2].
The like results for `CC(=O)N1c2ccc(-c3cnn(C4COC4)c3)c(OCCNS(C)(=O)=O)c2CC[C@@H]1C` [I-380] were, in that order, 1 to 10 µM and 0.05 to 0.5 µM.
The like results for `CC(=O)N1c2ccc(-c3cnn(C4CC4)c3)c(OCc3ccno3)c2CC[C@@H]1C` [I-381] were, in that order, 1 to 10 µM and 0.05 to 0.5 µM.
Take `CNC(=O)COc1c(-c2cnn(C3CC3)c2)ccc2c1CC[C@H](C)N2C(C)=O` [I-383]: the figures for the IC50 in test [1] and in test [2] were 1 to 10 µM and 0.05 to 0.5 µM, respectively.
As for `CC(=O)N1c2ccc(-c3cnn(C4CC4)c3)c(OC3COC3)c2CC[C@@H]1C` [I-384], the results for the IC50 in test [1] and in test [2] were 1 to 10 µM and 0.05 to 0.5 µM, respectively.
The like results for `CC(=O)N1c2ccc(-c3cnn(C4CC4)c3)c(OCCN(C)C)c2CC[C@@H]1C` [I-386] were, in that order, 1 to 10 µM and not below 0.5 µM.
For `CC(=O)N1c2ccc(-c3cnn(C4CC4)c3)c(OCC(N)=O)c2CC[C@@H]1C` [I-391], the IC50 is 1 to 10 µM in test [1] and not below 0.5 µM in test [2].
The corresponding values for `CC(=O)N1c2ccc(-c3cnn(C4CC4)c3)c(OCc3ccccc3)c2CC[C@@H]1C` [I-393] are 1 to 10 µM and less than 0.05 µM.
With `CC(=O)N1c2ccc(-c3cnn(C4CC4)c3)c(OCC#N)c2CC[C@@H]1C` [I-397], the IC50 in test [1] lay in the range of 1 to 10 µM; in test [2] it was 0.05 to 0.5 µM.
The like results for `CC(=O)N1c2ccc(-c3cnn(C4CC4)c3)c(OCc3cccnc3)c2CC[C@@H]1C` [I-399] were, in that order, 1 to 10 µM and 0.05 to 0.5 µM.
The corresponding values for `CC(=O)N1c2ccc(-c3cnn(C4CC4)c3)c(OCc3ccccn3)c2CC[C@@H]1C` [I-403] are 1 to 10 µM and 0.05 to 0.5 µM.
With `COc1c(-c2cnn(C3CC3)c2)ccc2c1CC[C@H](C)N2C(C)=O` [I-404], the 50% inhibitory concentration (IC50) is 1 to 10 µM in test [1] and 0.05 to 0.5 µM in test [2].
The corresponding values for `CC(=O)N1c2ccc(-c3cnn(C4CC4)c3)c(OCc3ccn(C)n3)c2CC[C@@H]1C` [I-405] are 1 to 10 µM and 0.05 to 0.5 µM.
Consider `CC(=O)N1c2ccc(-c3cnn(C4CC4)c3)c(OCc3cncs3)c2CC[C@@H]1C` [I-406], for which the values for the IC50 in test [1] and in test [2] were 1 to 10 µM and 0.05 to 0.5 µM, respectively.
The corresponding values for `CC(=O)N1c2ccc(-c3cnn(CC(C)(C)O)c3)c(OCC3CCOCC3)c2CC[C@@H]1C` [I-414] are 1 to 10 µM and 0.05 to 0.5 µM.
The corresponding values for `CC(=O)N1c2ccc(-c3cnn(CCS(C)(=O)=O)c3)c(OCC(=O)N(C)C)c2CC[C@@H]1C` [I-417] are 1 to 10 µM and 0.05 to 0.5 µM.
Regarding `CC(=O)N1c2ccc(-c3cnn(CC(C)(C)O)c3)c(OCC(=O)N(C)C)c2CC[C@@H]1C` [I-418], the IC50 is 1 to 10 µM in test [1] and 0.05 to 0.5 µM in test [2].
Take `CC(=O)N1c2ccc(-c3cnn(C4CCNCC4)c3)c(OCC(=O)N(C)C)c2CC[C@@H]1C` [I-419]: the IC50 in test [1] was 1 to 10 µM; in test [2], 0.05 to 0.5 µM.
The corresponding values for `CC(=O)N1c2ccc(-c3cnn(CC(C)(C)O)c3)c(OCC(C)C)c2CC[C@@H]1C` [I-421] are 1 to 10 µM and 0.05 to 0.5 µM.
The like results for `CC(=O)N1c2ccc(-c3cnn(CCS(C)(=O)=O)c3)c(OCC(=O)N3CCCC3)c2CC[C@@H]1C` [I-428] were, in that order, 1 to 10 µM and 0.05 to 0.5 µM.
Consider `CC(=O)N1c2ccc(-c3cnn(CC(C)(C)O)c3)c(OCC(=O)N3CCCC3)c2CC[C@@H]1C` [I-429], for which the IC50 is 1 to 10 µM in test [1] and 0.05 to 0.5 µM in test [2].
`CC(=O)N1c2ccc(-c3cnn(CCO)c3)c(OCC(=O)N3CCCC3)c2CC[C@@H]1C` [I-430]: the figures for the IC50 in test [1] and in test [2] were 1 to 10 µM and 0.05 to 0.5 µM, respectively.
In the case of `CC(=O)N1c2ccc(-c3cnn(CCS(C)(=O)=O)c3)c(OC[C@H]3CCC(=O)N3)c2CC[C@@H]1C` [I-432], the IC50 is 1 to 10 µM in test [1] and 0.05 to 0.5 µM in test [2].
The corresponding values for `CC(=O)N1c2ccc(-c3cnn(CC(C)(C)O)c3)c(OC[C@H]3CCC(=O)N3)c2CC[C@@H]1C` [I-433] are 1 to 10 µM and 0.05 to 0.5 µM.
The like results for `CC(=O)N1c2ccc(-c3cnn(CCO)c3)c(OC[C@H]3CCC(=O)N3)c2CC[C@@H]1C` [I-434] were, in that order, 1 to 10 µM and 0.05 to 0.5 µM.
